Measurements published in ChEMBL document CHEMBL5244207, “Phenanthrenes: A Promising Group of Plant Secondary Metabolites” (J Nat Prod, 2018).
Values after ≈ are worked out from the molar mass of the structure shown. One block for each compound: values may come before it.

Columns and labels:
[1] = tested on: Rattus norvegicus; experiment: Anxiolytic activity in rat assessed as increase in time spent in open arm at 5 mg/kg by elevated plus maze test; type: functional
[2] = tested on: Rattus norvegicus; experiment: Anxiolytic activity in rat assessed as number of entries in open arm at 5 mg/kg by elevated plus maze test; type: functional
[3] = tested on: RAW264.7; experiment: Antiinflammatory activity in mouse RAW264.7 cells assessed as reduction in LPS-induced nitric oxide production; type: functional, cell-based
[4] = tested on: Rattus norvegicus; experiment: Anxiolytic activity in rat assessed as head tips at 5 mg/kg by elevated plus maze test; type: functional
[5] = Hemolytic activity in human Neutrophil assessed as hemolysis rate at 10 uM relative to control; type: toxicity, cell-based; conditions: human neutrophils, read-out: Activity
[6] = Hemolytic activity in human Neutrophil at 10 uM relative to control; type: toxicity, cell-based
[7] = Antioxidant activity assessed as DPPH radical scavenging activity incubated for 30 mins by spectrophotometric analysis; type: functional
[8] = Toxicity in brine shrimp assessed as lethality; conditions: artemia salina
[9] = tested on: BV-2; experiment: Antiinflammatory activity in mouse BV2 cells assessed as reduction in LPS-induced nitric oxide production; type: functional, cell-based
[10] = tested on: C6; experiment: Neuroprotective activity in rat C6 cells assessed as NGF secretion level; type: functional

IC50 ([3]; Mus musculus, RAW264.7): 15.6 µM
SMILES: C=Cc1c(C)c(O)cc2ccc3c(C)c(O)ccc3c12
Time [1]: 56.54 s
Activity [2]: >6
Activity [4]: >80

IC50 ([3]; Mus musculus, RAW264.7): 12.7 µM
IC50 ([3]; raw264.7): 10.5 µM
IC50 [7]: 1.7 µM
SMILES: C=Cc1cc(O)cc2ccc3c(C)c(O)ccc3c12
hemolysis at 10 µM [5]: 11.3%
Activity [6]: 5.3

SMILES: O=P1(N(CCCl)CCCl)NCCCO1 (configuration not stated) [CYCLOPHOSPHAMIDE ANHYDROUS]
LC50 [8]: 16.4 µg/mL (≈ 62.8 µM)

IC50 [9]: 19.6 µM
SMILES: COc1cc2c(ccc3cc(OC)c(O)c(OC)c32)cc1O
Activity [10]: 162.4%
